# Test results taken from publication PMC4766415 (Nature Communications, 2016).
# Assays:
# [1] = tested on: T1, tetrameric TTR in human plasma; assay: Ex vivo plasma TTR stability by immunoturbidity after urea denaturation; format: biochemical; conditions: 4.8 M urea, 48 h; pooled plasma of healthy volunteers
# T1 construct: Plasma TTR was then immunoprecipitated; from tissue; host or cells: human plasma
# Text: Stabilization of plasma TTR under physiological conditions was confirmed using an immunoturbidity assay[29] (Fig. 4c). […] After urea treatment, samples were crosslinked with glutaraldehyde and the concentration of TTR determined by immunoturbidity. Treatment with urea and glutaraldehyde decreases immunoturbidity signal due to the extensive modification of denatured TTR monomers by glutaraldehyde, hampering antibody recognition. As TTR denaturation is preceded by tetramer dissociation, the signal roughly correlates with tetramer stability.
# A pool of lithium-heparin plasma samples from healthy volunteers stored at −80 °C was thawed on ice. Partially clotted particles were removed by spinning the samples for 2 min at 10,000g. […] Addition volume was limited to maximum 1.5% (v/v) of sample. A control in which DMSO vehicle was added was included in the experimental design. Samples were then mixed with a urea solution (8 M in 50 mM potassium phosphate pH 7.0, 100 mM NaCl, 1 mM dithiothreitol, 1 mM EDTA) to a final urea concentration of 4.8 M, and incubated for various time points at controlled RT conditions. […] Samples were transferred to a measuring tube and read by immunoturbidity after 5 min at RT. Immunoturbidity was measured in a Siemens Automate Dimension EXL200 instrument, using the Siemens Prealbumin (PALB) reagent and calibrator according to the manufacturer's instructions. […]
# TTR tetramer = tested on: T2, TTR tetramer; assay: TTR stabilization after oral administration in humans (immunoturbidity, urea); format: in vivo, human; conditions: for FOI (TTR tetramer after 48 h urea/TTR tetramer at time 0): 4.8 M urea
# T2 construct: Plasma TTR was then immunoprecipitated; from tissue; host or cells: human plasma
# Procedure: TTR stabilization in vivo was measured using an immunoturbidimetric assay as in Fig. 4c. The fraction of initial tetramer concentration (FOI) was determined in triplicate for each sample (FOI=TTR tetramer after 48 h urea treatment/TTR tetramer at time 0 in the presence of urea).
# For TTR stabilization analysis, frozen plasma samples were thawed on ice. Samples were then mixed with a 8 M urea solution (in 40 mM sodium phosphate pH 7.4 and 80 mM KCl) to a final urea concentration of 4.8 M. One aliquot was taken immediately after adding urea (time 0) and the rest were incubated for 48 h at controlled RT conditions. After the incubation time points (0 or 48 h), TTR was crosslinked with 40 mM glutaraldehyde (2.5 M stock solution). The samples were quickly vortexed and incubated for 4 min at RT. Then, NaBH4 was added to a final concentration of 48 mM to quench the reaction. Samples were transferred to a measuring tube and read by immunoturbidity after 5 min at RT. Immunoturbidity was measured in a Beckman Coulter AU680 ISE instrument (Beckman Coulter), using the Olympus OSR6175 reagent and calibrator ODR3029 (Olympus) according to the manufacturer's instructions. Analysis was performed in triplicates. Informed consent was obtained from all subjects and the protocol was approved by the Ethics Committee of Hospital Vall d'Hebron (Barcelona).
# [2] = tested on: T3, TTR in human plasma (WT-TTR and V30M-TTR); assay: [125I]T4 competition in human plasma, native gel electrophoresis; format: binding; conditions: 1 mM; plasma from normal (WT-TTR) and V30M-TTR FAP patient; 1 h RT
# T3 construct: human plasma from a normal (WT-TTR) and from an FAP patient carrying the V30M-TTR mutation; from tissue; host or cells: human plasma of normal donors and of V30M-TTR carriers
# Text: Error bars indicate s.e.m. (n=3). […] Error bars indicate s.e.m. (n=3).
# human V30M-TTR = tested on: T4, human V30M-TTR; assay: T4 competition in plasma of transgenic mice after oral tolcapone; format: in vivo; conditions: 30 to 300 mg kg^−1 by gavage
# T4 construct: plasma samples from the transgenic mice expressing human V30M-TTR; from tissue; host or cells: plasma of transgenic mice expressing human V30M-TTR
# Procedure: The animals were killed 1 h after the last dose. Plasma samples were obtained before dosing (t=0) and at the end of the experiment. T4 competition assays by native gel electrophoresis were performed in plasma following the same protocol as in Fig. 4a. At basal conditions (t=0), around 40% of the total radioactivity was associated with the TTR band in samples from all animals.
# Plasma samples were treated with radiolabelled T4 and subjected to native PAGE. The fraction of radiolabelled T4 bound to the band corresponding to TTR is represented. Error bars indicate s.e.m. (n=4). (b) TTR tetramer stability in the plasma of control and tolcapone-treated transgenic mice was assessed by IEF under semi-denaturing conditions. The ratio between the TTR tetramers and the rest of the TTR species in the IEF gels was calculated for controls and tolcapone-treated mice. The data are expressed as fold increase of the ratio TTR tetramer/total TTR with respect to samples from vehicle-treated animals. ***P<0.001 and **P<0.01 (Student's t-test). Error bars indicate s.e.m. (n=3). […] TTR stabilization was quantified by immunoturbidity after urea denaturation with subsequent crosslinking with glutaraldehyde as detailed in the experimental section. […] White bars correspond to plasma samples crosslinked 0 h after urea addition, black bars correspond to plasma samples crosslinked after 48 h of urea denaturation. […]
smiles,measurement,setting,value
Cc1ccc(C(=O)c2cc(O)c(O)c([N+](=O)[O-])c2)cc1 [tolcapone],stabilization of plasma TTR against urea denaturation,[1],stabilized TTR in a dose-responsive manner
same,FOI (TTR tetramer after 48 h urea/TTR tetramer at time 0),"TTR tetramer; HV1, 200 mg oral, plasma 2 h after dose",0.78±0.04
same,FOI (TTR tetramer after 48 h urea/TTR tetramer at time 0),"TTR tetramer; HV2, 2 × 200 mg oral, plasma 2 h after last dose",0.98±0.02
same,TTR stabilization,"TTR tetramer; single dose of 200 mg, plasma 13.6 μM at Tmax",359%
same,radioactive T4-TTR band in the presence of compound,[2],no longer visible
same,amount of T4 remaining bound to TTR at the end of treatment,human V30M-TTR,decreased in a dose-dependent manner
